Results: patent US4661297A, “Basic ethers of 7-oxo-7H-benzo(c) fluorene and a process for their production” (SPOFA, spojene podniky pro zdravotnickou vyrobu, priority 1980, dated 1987)
Values joined by “and” are separate entries in the source; they are usually repeats but may differ in a detail not shown here. Equal values may be shown once. “Also recorded” adds a separate entry of the source. Read-outs that look alike come from different tables or passages of the source.

Key:
[1] = system: Ehrlich's ascitic carcinoma; experiment: Incorporation of 14C-adenine and 14C-valine into cellular fraction of Ehrlich's ascitic carcinoma in vitro; format: cell-based, mouse; conditions: for Radioactivity incorporation, adenine: control 1060 cpm; for Radioactivity incorporation, valine: control 2455 cpm; for IC50 / activity at 75 µM / activity at 150 µM / activity at 18.75 µM / activity at 37.5 µM: Mus musculus, Ehrlich
From the text: In Table 4, the effect of Tiloron (NSC 143969; 2,7-bis-[2-(diethylamino)ethoxy]fluorene-9-one) and 5-(2-dimethylaminoethoxy)-7-oxo-7H-benzo(c) fluorene hydrochloride are compared on incorporation of ^14 C-adenine and ^14 C-valine with the cellular fraction of Ehrlich's ascitic carcinoma (insoluble in trichloacetic acid). The tests in vitro reveal that the composition of the invention was more than 10 times as effective as Tiloron. The inhibition of incorporation of adenine and valine into the used system of tumor cells is considered as an indication of an anti-tumorous, cytostatic action. This biological activity of the described compound is considerably greater than that of its congener Tiloron. (See also Table 4.)
Effects of Tiloron and substance 13468 on incorporation of ^14
C-adenine and ^14 C-valine
into cellular fraction of Ehrlichs ascitic carcinoma, insoluble in
in vitro. Radioactivity incorporation expressed in cpm.
IC50 = concentration inhibiting incorporation by 50 percent.

[2] = system: haemagglutinins (antibody formation); experiment: Haemagglutinin titre in mouse serum after ram erythrocyte immunization; format: in vivo; conditions: for Haemagglutinins % of control titre / Haemagglutinins titre: day 9; for Haemagglutinins titre: control 343
From the text: (§1) Haemagglutanin and haemolysin titres in mouse serum on day 9 after ram
(§2) immunization under effect of substance 13468. Substance injected
(§3) either for 5 days (2 days before, on day of, 2 days after immunization)
(§4) (2 days before, on day of, 8 days after immunization). Groups of 12
(§5) expressed by mean value of highest attenuation of serum eliciting

[3] = system: haemolysins (antibody formation); experiment: Haemolysin titre in mouse serum after ram erythrocyte immunization; format: in vivo; conditions: day 9; for Haemolysins titre: control 37
From the text: as §1, §2, §3, §4, §5

Yoshida's Tumor = experiment: Inhibition of incorporation of labelled substrates in Yoshida's tumor; format: cell-based; conditions: Rattus norvegicus, read-out: IC50
From the text: Tumor growth may be observed clinically or in experiments in vivo, that is, with experimental animals, or in vitro, for example, in tissue cultures prepared from tumors. Assessment of tumor growth may be effected by measuring the weight of the tumor mass or, more effectively, by measuring the radioactivity after incorporation therein of certain substances of natural origin such as amino acids, adenine, thymidine and the like labelled with radioactive atoms such as ^14 C, ^3 H, etc.
Thus, by way of exemplification, the IC^50 values (inhibitory concentration which lowered the initial rate of ^14 C incorporation to 50% of control) are shown in Table VI, below (Yoshida's Tumor, (U-^14 C) amino acid mixture)
The ^IC 50 values of compound 13468 are also shown in Table VII with varying substrates.

Ehrlich tumor = experiment: Inhibition of incorporation of labelled substrate in Ehrlich tumor; format: cell-based; conditions: Mus musculus, substrate L-(U-14C) amino acid mixture
Acute toxicity in mice = conditions: mouse, in vivo, mice S, males 22-24 gram
From the text: The anti-tumor compounds described herein have also been studied from the standpoint of toxicity and the conclusion drawn that they are not toxic to mammalian hosts. The toxicological data set forth in Table IX, below, supports this conclusion.

[4] = system: human myelogenous leukemia cells; experiment: DNA biosynthesis inhibition in human myelogenous leukemia cells; format: cell-based

What does the source list for `CN(C)CCOc1cc2c(c3ccccc13)-c1ccccc1C2=O.Cl` [compound 13468, 5-(2-Dimethylaminoethoxy)-7-oxo-7H-benzo(c) fluorene hydrochloride]?
Radioactivity incorporation, adenine ([1]; 75 μM): 266 cpm; Radioactivity incorporation, valine ([1]; 75 μM): 887 cpm; Radioactivity incorporation, adenine ([1]; 150 μM): 59 cpm; Radioactivity incorporation, valine ([1]; 150 μM): 349 cpm; Radioactivity incorporation, adenine ([1]; 18,75 μM): 757 cpm; Radioactivity incorporation, valine ([1]; 18,75 μM): 2394 cpm; Radioactivity incorporation, adenine ([1]; 37,5 μM): 714 cpm; Radioactivity incorporation, valine ([1]; 37,5 μM): 2253 cpm; IC50 ([1]; read-out: IC50 (concentration inhibiting incorporation by 50 percent), adenine): 53 µM; IC50 ([1]; read-out: IC50 (concentration inhibiting incorporation by 50 percent), valine): 65 µM; activity at 75 µM ([1]; 75 μM, read-out: Incorporation of adenine relative to control (0 μM = 100%)): 25%; activity at 75 µM ([1]; 75 μM, read-out: Incorporation of valine relative to control (0 μM = 100%)): 36%; activity at 150 µM ([1]; 150 μM, read-out: Incorporation of adenine relative to control (0 μM = 100%)): 6%; activity at 150 µM ([1]; 150 μM, read-out: Incorporation of valine relative to control (0 μM = 100%)): 14%; activity at 18.75 µM ([1]; 18,75 μM, read-out: Incorporation of adenine relative to control (0 μM = 100%)): 71%; activity at 18.75 µM ([1]; 18,75 μM, read-out: Incorporation of valine relative to control (0 μM = 100%)): 98%; activity at 37.5 µM ([1]; 37,5 μM, read-out: Incorporation of adenine relative to control (0 μM = 100%)): 87%; activity at 37.5 µM ([1]; 37,5 μM, read-out: Incorporation of valine relative to control (0 μM = 100%)): 92%; times as effective as Tiloron ([1]; adenine and valine incorporation, in vitro): more than 10 times; Immunosuppressive effect on antibody formation ([2]; mice, in words, hydrochloride): immunosuppressive effects on antibody formation in mice; also recorded: inhibition of the formation of immunological serum anti-bodies; Haemagglutinins % of control titre ([2]; s.c. 5×8 mg/kg): 71%; Haemagglutinins titre ([2]; s.c. 5×8 mg/kg): 243; Haemagglutinins % of control titre ([2]; s.c. 5×40 mg/kg): 3.5%; Haemagglutinins titre ([2]; s.c. 5×40 mg/kg): 12; Haemagglutinins % of control titre ([2]; s.c. 11×8 mg/kg): 71%; Haemagglutinins titre ([2]; s.c. 11×8 mg/kg): 243; Haemagglutinins % of control titre ([2]; s.c. 11×40 mg/kg, Suppressed): under 2.9%; Haemagglutinins titre ([2]; s.c. 11×40 mg/kg, Suppressed): under 10; Haemolysins % of control titre ([3]; s.c. 5×8 mg/kg): 132%; Haemolysins titre ([3]; s.c. 5×8 mg/kg): 49; Haemolysins % of control titre ([3]; s.c. 5×40 mg/kg): under 27%; Haemolysins titre ([3]; s.c. 5×40 mg/kg, Suppressed): under 10; Haemolysins % of control titre ([3]; s.c. 11×8 mg/kg): under 27%; Haemolysins titre ([3]; s.c. 11×8 mg/kg, Suppressed): under 10; Haemolysins % of control titre ([3]; s.c. 11×40 mg/kg): under 27%; Haemolysins titre ([3]; s.c. 11×40 mg/kg, Suppressed): under 10; IC50 (Yoshida's Tumor; substrate 5-iodo-2-deoxy(6-3H) uridine): 12 µM; IC50 (Yoshida's Tumor; substrate (6-3H) uridine): 36 µM and 12.6 µg/mL; IC50 (Yoshida's Tumor; substrate (thymine U-14C) thymidine): 4 µM; IC50 (Yoshida's Tumor; substrate L-(U-14)leucine): 29 µM; IC50 (Yoshida's Tumor; substrate L-(U-14C) amino acid mixture, Table VII): 32 µM; IC50 (Ehrlich tumor): 31 µM; LD50 (Acute toxicity in mice; iv, intravenously): 90 mg/kg; LD50 (Acute toxicity in mice; po, orally): 600 mg/kg; LD50 (Acute toxicity in mice; sc, subcutaneously): 490 mg/kg; IC50 [4]: 5 µM
